4 molecules from patent publication US20240368565A1, “COMPLEMENTATION-BASED TAGS AND REPORTERS FOR DUAL-MODALITY LABELING” (Promega Corporation, priority 2023, published 2024) can be followed below.

Values joined by “and” are separate entries in the source; they are usually repeats but may differ in a detail not shown here. Identical values can stand only once. Peptide text beside a SMILES is read from it. * marks the point of attachment. Biotin = O=C1N[C@H]2[C@H](CS[C@H]2CCCCC(=O)*)N1

In assay [1] the target is HaloTag[22-297](M2F + K140E)-12xGly/Ser-LgBiT-3xGly/Ser-6xHis (Rhodococcus rhodochrous, UniProt P0A3G2, A155T/A167V/A172T/A224E/C128F/C176G/D78G/E257K/H272N/K175M/K195N/L47V/L88M/N227D/S58T/T264A/Y273L/Y87F). Description: biochemical. It is filed as binding. The following applies: KD, biotinylated peptide on streptavidin probes, PBST, 25° C.
Assay [2] concerns the target HaloTag[22-297](M2F + F148M + V177E)-12xGly/Ser-LgBiT-3xGly/Ser-6xHis (Rhodococcus rhodochrous, UniProt P0A3G2, A155T/A167V/A172T/A224E/C128F/C176G/D78G/E160K/E257K/F168M/H272N/K175M/K195N/L47V/L88M/N227D/S58T/T264A/V197E/Y273L/Y87F). Description: biochemical. The class given is binding.
Assay [3] addresses HaloTag[22-297](M2F)-12xGly/Ser-LgBiT-3xGly/Ser-6xHis (Rhodococcus rhodochrous, UniProt P0A3G2, A155T/A167V/A172T/A224E/C128F/C176G/D78G/E160K/E257K/H272N/K175M/K195N/L47V/L88M/N227D/S58T/T264A/Y273L/Y87F). In words: biochemical. It is filed as binding.
In assay [4] the target is HaloTag[22-297](M2F + D53G + V177E)-12xGly/Ser-LgBiT-3xGly/Ser-6xHis (Rhodococcus rhodochrous, UniProt P0A3G2, A155T/A167V/A172T/A224E/C128F/C176G/D73G/D78G/E160K/E257K/H272N/K175M/K195N/L47V/L88M/N227D/S58T/T264A/V197E/Y273L/Y87F). Description: biochemical. The class given is binding.
The target in assay [5] is HaloTag[22-297](M2F + D53G + K140E)-12xGly/Ser-LgBiT-3xGly/Ser-6xHis (Rhodococcus rhodochrous, UniProt P0A3G2, A155T/A167V/A172T/A224E/C128F/C176G/D73G/D78G/E257K/H272N/K175M/K195N/L47V/L88M/N227D/S58T/T264A/Y273L/Y87F). Description: biochemical. It is filed as binding.
The target in assay [6] is HaloTag[22-297](M2F)-12×Gly/Ser-LgBiT-6×His (Rhodococcus rhodochrous, UniProt P0A3G2, A155T/A167V/A172T/A224E/C128F/C176G/D78G/E160K/E257K/H272N/K175M/K195N/L47V/L88M/N227D/S58T/T264A/Y273L/Y87F). It is filed as biochemical. The settings on record: purified reporter, 30 minutes at 4° C., furimazine.

Sequence of HaloTag[22-297](M2F + F148M + V177E)-12xGly/Ser-LgBiT-3xGly/Ser-6xHis (P0A3G2 23-290 with tags or gaps with the stated changes): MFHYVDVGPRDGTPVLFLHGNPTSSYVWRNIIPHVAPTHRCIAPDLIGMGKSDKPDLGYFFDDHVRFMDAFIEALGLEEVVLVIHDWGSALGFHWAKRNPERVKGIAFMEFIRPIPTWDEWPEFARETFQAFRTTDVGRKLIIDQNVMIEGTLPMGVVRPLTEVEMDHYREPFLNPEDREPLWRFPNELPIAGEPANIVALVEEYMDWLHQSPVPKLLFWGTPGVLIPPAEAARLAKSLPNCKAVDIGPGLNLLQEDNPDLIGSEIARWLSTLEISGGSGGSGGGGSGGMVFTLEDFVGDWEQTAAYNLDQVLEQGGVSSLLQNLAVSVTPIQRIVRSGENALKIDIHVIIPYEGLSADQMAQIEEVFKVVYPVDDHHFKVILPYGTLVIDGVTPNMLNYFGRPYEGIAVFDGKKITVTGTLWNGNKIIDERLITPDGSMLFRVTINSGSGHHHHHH
Sequence of HaloTag[22-297](M2F + K140E)-12xGly/Ser-LgBiT-3xGly/Ser-6xHis (P0A3G2 23-290 with tags or gaps with the stated changes): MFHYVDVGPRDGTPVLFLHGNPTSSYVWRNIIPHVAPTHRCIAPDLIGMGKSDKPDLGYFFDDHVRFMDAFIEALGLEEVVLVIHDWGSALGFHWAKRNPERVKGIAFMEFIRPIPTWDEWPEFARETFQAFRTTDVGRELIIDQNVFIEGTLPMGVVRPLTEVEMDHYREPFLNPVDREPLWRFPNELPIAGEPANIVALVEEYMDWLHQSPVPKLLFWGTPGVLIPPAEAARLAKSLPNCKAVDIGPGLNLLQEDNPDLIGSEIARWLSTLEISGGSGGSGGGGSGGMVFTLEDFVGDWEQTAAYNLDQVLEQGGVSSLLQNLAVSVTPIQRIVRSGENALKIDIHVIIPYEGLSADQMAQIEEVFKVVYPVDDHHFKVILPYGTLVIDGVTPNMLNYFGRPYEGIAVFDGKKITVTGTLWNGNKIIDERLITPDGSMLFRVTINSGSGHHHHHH
Sequence of HaloTag[22-297](M2F + D53G + K140E)-12xGly/Ser-LgBiT-3xGly/Ser-6xHis (P0A3G2 23-290 with tags or gaps with the stated changes): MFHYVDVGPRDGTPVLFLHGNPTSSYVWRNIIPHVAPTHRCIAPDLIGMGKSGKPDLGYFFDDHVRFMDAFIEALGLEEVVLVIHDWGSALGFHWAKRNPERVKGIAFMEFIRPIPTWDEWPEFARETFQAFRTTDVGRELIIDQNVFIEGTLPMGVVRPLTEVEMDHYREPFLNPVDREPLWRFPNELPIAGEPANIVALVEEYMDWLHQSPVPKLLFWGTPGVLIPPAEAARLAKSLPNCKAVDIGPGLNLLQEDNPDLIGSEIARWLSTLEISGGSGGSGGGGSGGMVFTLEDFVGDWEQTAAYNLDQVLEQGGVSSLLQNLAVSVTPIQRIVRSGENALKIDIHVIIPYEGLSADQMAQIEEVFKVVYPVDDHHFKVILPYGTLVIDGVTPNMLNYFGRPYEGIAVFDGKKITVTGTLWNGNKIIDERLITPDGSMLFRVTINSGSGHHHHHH
Sequence of HaloTag[22-297](M2F + D53G + V177E)-12xGly/Ser-LgBiT-3xGly/Ser-6xHis (P0A3G2 23-290 with tags or gaps with the stated changes): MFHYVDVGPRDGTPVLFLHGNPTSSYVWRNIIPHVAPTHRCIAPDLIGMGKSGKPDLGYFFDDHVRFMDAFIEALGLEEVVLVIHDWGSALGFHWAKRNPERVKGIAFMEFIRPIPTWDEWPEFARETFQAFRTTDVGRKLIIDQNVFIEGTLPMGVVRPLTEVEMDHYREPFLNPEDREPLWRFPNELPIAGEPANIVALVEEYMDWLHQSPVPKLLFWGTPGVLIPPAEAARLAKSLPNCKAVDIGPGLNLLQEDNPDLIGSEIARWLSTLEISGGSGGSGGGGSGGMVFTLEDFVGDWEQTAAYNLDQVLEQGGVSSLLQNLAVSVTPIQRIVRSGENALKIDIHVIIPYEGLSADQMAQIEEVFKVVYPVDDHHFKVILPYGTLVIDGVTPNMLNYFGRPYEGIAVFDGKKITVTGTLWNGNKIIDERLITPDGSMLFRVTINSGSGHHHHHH
Sequence of HaloTag[22-297](M2F)-12xGly/Ser-LgBiT-3xGly/Ser-6xHis (P0A3G2 23-290 with tags or gaps with the stated changes): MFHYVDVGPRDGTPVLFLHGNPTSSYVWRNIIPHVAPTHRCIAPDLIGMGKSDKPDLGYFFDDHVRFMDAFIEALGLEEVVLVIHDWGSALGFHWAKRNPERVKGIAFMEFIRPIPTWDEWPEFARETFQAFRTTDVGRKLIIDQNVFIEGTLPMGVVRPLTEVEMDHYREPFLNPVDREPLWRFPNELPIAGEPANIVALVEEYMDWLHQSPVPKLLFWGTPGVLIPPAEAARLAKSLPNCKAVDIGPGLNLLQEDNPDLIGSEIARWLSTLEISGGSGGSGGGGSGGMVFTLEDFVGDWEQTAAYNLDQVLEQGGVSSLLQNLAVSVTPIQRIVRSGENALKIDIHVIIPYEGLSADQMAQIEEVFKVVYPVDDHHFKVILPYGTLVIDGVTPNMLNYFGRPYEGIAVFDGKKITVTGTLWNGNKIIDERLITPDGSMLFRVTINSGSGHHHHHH

What is called Kd is the equilibrium constant for the complex coming apart. `CC[C@H](C)[C@H](NC(=O)[C@H](CCCCN)NC(=O)[C@H](CCCCN)NC(=O)[C@H](Cc1ccccc1)NC(=O)[C@H](CC(C)C)NC(=O)[C@H](CCCNC(=N)N)NC(=O)[C@H](Cc1c[nH]c2ccccc12)NC(=O)CNC(=O)[C@H](CO)NC(=O)[C@@H](NC(=O)[C@H](CO)NC(=O)[C@@H](NC(=O)CNC(=O)[C@H](CO)NC(=O)CNC(=O)CNC(=O)CNC(=O)[C@H](CC(C)C)NC(=O)[C@@H](NC(=O)[C@H](CCC(=O)O)NC(=O)[C@@H](NC(=O)[C@H](Cc1ccc(O)cc1)NC(=O)[C@H](Cc1c[nH]cn1)NC(=O)[C@@H]1CCCN1C(=O)[C@H](CC(=O)O)NC(=O)[C@H](Cc1ccccc1)NC(=O)[C@@H]1CCCN1C(=O)[C@H](Cc1ccccc1)NC(=O)CNC(=O)[C@@H](NC(=O)[C@H](CCCCN)NC(=O)[C@@H](NC(=O)[C@H](CCC(=O)O)NC(=O)CCCC[C@@H]1SC[C@@H]2NC(=O)N[C@@H]21)[C@@H](C)CC)[C@@H](C)O)C(C)C)C(C)C)C(C)C)C(C)C)C(=O)N[C@@H](CO)C(=O)O` [HaloTag[3-19](G3K)-4xGly/Ser-VSHiBiT] (Biotin-EIKTGFPFDPHYVEVLGGGSGVSVSGWRLFKKIS-OH): the Kd in assay [1] is 0.264 nM; in assay [2] it was 0.102 nM.
As to `CC[C@H](C)[C@H](NC(=O)[C@H](CCCCN)NC(=O)[C@H](CCCCN)NC(=O)[C@H](Cc1ccccc1)NC(=O)[C@H](CC(C)C)NC(=O)[C@H](CCCNC(=N)N)NC(=O)[C@H](Cc1c[nH]c2ccccc12)NC(=O)CNC(=O)[C@H](CO)NC(=O)[C@@H](NC(=O)[C@H](CO)NC(=O)[C@@H](NC(=O)CNC(=O)[C@H](CO)NC(=O)CNC(=O)CNC(=O)CNC(=O)[C@H](CC(C)C)NC(=O)[C@@H](NC(=O)[C@H](CCC(=O)O)NC(=O)[C@@H](NC(=O)[C@H](Cc1ccc(O)cc1)NC(=O)[C@H](Cc1c[nH]cn1)NC(=O)[C@@H]1CCCN1C(=O)[C@H](CC(=O)O)NC(=O)[C@H](Cc1ccccc1)NC(=O)[C@@H]1CCCN1C(=O)[C@H](Cc1ccccc1)NC(=O)CNC(=O)[C@@H](NC(=O)CNC(=O)[C@H](CCCNC(=N)N)NC(=O)[C@H](CCC(=O)O)NC(=O)CCCC[C@@H]1SC[C@@H]2NC(=O)N[C@@H]21)[C@@H](C)O)C(C)C)C(C)C)C(C)C)C(C)C)C(=O)N[C@@H](CO)C(=O)O` [HaloTag[3-19](I2R)-4xGly/Ser-VSHiBiT] (Biotin-ERGTGFPFDPHYVEVLGGGSGVSVSGWRLFKKIS-OH), the Kd in assay [3] was 1.61 nM; in assay [1] it was 0.684 nM and 0.466 nM; in assay [4], 0.669 nM; in assay [2] it was 0.509 nM; in assay [5] it was 0.576 nM.
Regarding “KFNDQWNYRANFLKIRRVSVSGWRLFKKIS [Peptide 1061]”, in assay [6], the “Complementing the reporter to enhance luminescence signal” value is “still functional”.
Take `CC[C@H](C)[C@H](NC(=O)[C@H](CCC(=O)O)NC(=O)CCCC[C@@H]1SC[C@@H]2NC(=O)N[C@@H]21)C(=O)NCC(=O)N[C@H](C(=O)N[C@@H](CCCNC(=N)N)C(=O)N[C@@H](Cc1ccccc1)C(=O)N1CCC[C@H]1C(=O)N[C@@H](Cc1ccccc1)C(=O)N[C@@H](CC(=O)O)C(=O)N1CCC[C@H]1C(=O)N[C@@H](Cc1c[nH]cn1)C(=O)N[C@@H](Cc1ccc(O)cc1)C(=O)N[C@H](C(=O)N[C@@H](CCC(=O)O)C(=O)N[C@H](C(=O)N[C@@H](CC(C)C)C(=O)NCC(=O)NCC(=O)NCC(=O)N[C@@H](CO)C(=O)NCC(=O)N[C@H](C(=O)N[C@@H](CO)C(=O)N[C@H](C(=O)N[C@@H](CO)C(=O)NCC(=O)N[C@@H](Cc1c[nH]c2ccccc12)C(=O)N[C@@H](CCCNC(=N)N)C(=O)N[C@@H](CC(C)C)C(=O)N[C@@H](Cc1ccccc1)C(=O)N[C@@H](CCCCN)C(=O)N[C@@H](CCCCN)C(=O)N[C@H](C(=O)N[C@@H](CO)C(=O)O)[C@@H](C)CC)C(C)C)C(C)C)C(C)C)C(C)C)[C@@H](C)O` [HaloTag[3-19](G5R)-4xGly/Ser-VSHiBiT] (Biotin-EIGTRFPFDPHYVEVLGGGSGVSVSGWRLFKKIS-OH): the Kd in assay [2] stood at 0.485 nM.
